Measured values from US20100062441A1, “C-MET MUTATIONS AND USES THEREOF” (priority 2007, published 2010).

What was measured:
[1] = test system: SCCHN cell lines; test: Viability/growth by MTT and/or Cyquant; assay type: cell-based, human; settings: several cell lines
Text: Specific inhibition of c-Met by small molecule inhibitors can also be determined. […] Both SU11274 (1st generation) and Compound X (3rd generation) were used to test for their respective inhibitory effects on SCCHN cell lines.

[2] = test system: c-Met phosphorylation in SCCHN cell lines; test: c-Met phosphorylation and downstream signaling after HGF stimulation; assay type: cell-based, human
[3] = test system: MM-AN melanoma cells (minimal levels of c-MET); test: Cell growth analysis (cell counting); assay type: cell-based, human
Experimental: (§1) For measuring the effect of SU11274 on growth of melanoma cells, MM-AN, MU, PM-WK, MM-RU, MM-MC and RPM-EP cells were plated at 6×10^4 cells in 60 mm dishes in MEM with 10% serum. After 24 hrs different concentrations of SU11274 were added and after 96 hrs cells were trypsinized and counted in a cell counter (Beckman Coulter). Each data point was repeated in triplicate.

[4] = test system: MM-AN cells; test: Apoptosis by propidium iodide FACS (sub G0/G1); assay type: cell-based, human
Experimental: MM-AN, MU, PM-WK, MM-RU, MM-MC, MM-LH and RPM-EP melanoma cells were grown in MEM (Cellgro, Hernon, Va.) with 10% FBS (Gemini Bioproducts, Woodland, Calif.). Triplicate melanoma cell cultures were grown in MEM with 10% FBS and treated with a final concentration of 5-10 μM of SU11274 or an equal volume of diluent (DMSO) as a control for 96 hrs. Cells were collected, stained with propidium iodide and analyzed with a Becton Dickinson FACS Scan and Cell Quest software.
SU11274, which is a highly specific inhibitor of c-Met, was tested on the six melanoma cell lines. […] By 96 hrs between 12 to 58% of cells in different melanoma cell lines appeared in the sub G0/G1 region of the FACS profile indicating apoptosis.

[5] = test system: MU melanoma cells; test: Differentiation of melanoma cells (morphology); assay type: cell-based, human; settings: 72 hrs with 5 μM SU11274
Experimental: (§2) Thus SU11274 could induce a differentiated phenotype in a wide variety of melanoma cells melanized, amelanotic, less and more differentiated melanoma cells.
The effect of si RNA against c-Met was also studied on the proliferation and differentiation of MU melanoma cells. […] SU11274 at 5 μM and 10 μM inhibited the growth of melanoma cells by 72% and 88% respectively. The inhibitory effect of SU11274 was more pronounced than si RNA since SU11274 is a potent and selective inhibitor of c-Met activity and function. […] Similar to SU11274 c-Met Si RNA 12 hrs after transfection induced an increase in MITF (4 fold) and several of the melanocyte differentiation antigens tyrosinase (4-fold), gp-100 (2-fold) and MART-1 (2-fold) which have been targets for immunotherapy. The increase in the level of various differentiation proteins was determined by densiometric anaylsis after treatment with c-Met si RNA.

[6] = test system: MM-MC melanoma cells; test: Differentiation of melanoma cells (morphology); assay type: cell-based, human; settings: 72 hrs with 5 μM SU11274
Text: as §2

[7] = test system: MM-RU melanoma cells; test: Differentiation of melanoma cells (morphology); assay type: cell-based, human; settings: 72 hrs with 5 μM SU11274
Text: as §2

[8] = test system: MU melanoma cells; test: Proliferation / growth of melanoma cells; assay type: cell-based; settings: Homo sapiens
Experimental: as §1
siRNA against c-Met was obtained from Dharmacon (Lafayette, Colo.). Briefly four pooled SiRNA duplexes were transiently transfected into MU melanoma cells by the Dharmacon protocol utilizing Oligofectamine obtained from Invitrogen (Carlsbad, Calif.). Mock transfection was done in parallel using SignalSilence control SiRNA (Cell Signaling Technology) as negative control. For studies on the effect of Si RNA on differentiation proteins MU melanoma cells were transfected with Si RNA as described above and cell lysates were prepared after 12 hrs and immunoblotting performed as described above.
The effect of si RNA against c-Met was also studied on the proliferation and differentiation of MU melanoma cells. […] SU11274 at 5 μM and 10 μM inhibited the growth of melanoma cells by 72% and 88% respectively. […] The increase in the level of various differentiation proteins was determined by densiometric anaylsis after treatment with c-Met si RNA.

[9] = test system: reactive oxygen species (ROS) in MU melanoma cells; test: Reactive oxygen species measurement by DHE immunofluorescence; assay type: cell-based, human; settings: 5 μM SU11274 for 12 hrs; HGF 40 ng/ml
Experimental: 5×10^4 MU melanoma cells were plated in 35 mm petri dishes. After 24 hrs MU Melanoma cells were kept in serum free media containing 0.5% BSA with and without 5 μM SU11274 for 12 hrs. Cells were treated with 40 ng/ml HGF for 7.5 min, then treated with DHE 10 μM (molecular probes Inc, Eugene, Oreg.) for 30 min, after which they were visualized under a fluorescent Olympus microscope IX81, 20× objective, ND3 and Rhodamine filter sets. Fluorescence was then quantified using Image J and graphed.
The endogenous levels of reactive oxygen species (ROS) was also analyzed in MU melanoma cells with and without HGF treatment using DHE by fluorescence microscopy. DHE is a redox sensitive probe that has widely been used to detect intracellular superoxide anion. The relative levels of ROS were increased in response to HGF by 47%, and SU11274 decreased the ROS response to HGF to 3%.

IC50 of MM-AN relative to cell lines with abundant c-Met [3]: 2 fold
IC50 ([3]; Homo sapiens, MM-AN, 96 hrs): 5 µM
SMILES: Cc1[nH]c(/C=C2\C(=O)Nc3ccc(S(=O)(=O)N(C)c4cccc(Cl)c4)cc32)c(C)c1C(=O)N1CCN(C)CC1 [SU11274, (3Z)-N-(3-chlorophenyl)-3-({3,5-dimethyl-4-[(4-methylpiperazin-1-yl)carbonyl]-1H-pyrrol-2-yl}methylene)-N-methyl-2-oxo-2,3-dihydro-1H-indole-5-sulfonamide]
viability/growth [1]: markedly decreased
c-Met phosphorylation ([2]; all cell lines tested, HGF stimulation): Marked inhibition
downstream phosphorylation of SHP2, AKT, ERK ([2]; degree varied by cell line): affected downstream phosphorylation of SHP2, AKT, and to a lesser degree ERK
apoptosis [4]: No apoptosis could be detected
change in morphology / differentiated phenotype [5]: became very dendritic and differentiated
change in morphology / differentiated phenotype [6]: became bipolar, tripolar or multipolar
change in morphology / differentiated phenotype [7]: became bipolar, tripolar or multipolar
inhibition at 5 µM ([8]; 5 μM): 72%
inhibition at 10 µM ([8]; 10 μM): 88%
ROS response to HGF [9]: 3%
